Results reported in US20260256790A1, “DEBIO-0123 IN COMBINATION WITH TEMOZOLOMIDE AND RADIOTHERAPY FOR USE IN TREATING GLIOMA” (Debiopharm International S.A., priority 2023, published 2026).
Read-outs that look alike come from different tables or passages of the source.

Assays:
[1] = CSF and matching plasma concentrations in glioma patients (clinical trial Arms A and B); format: in vivo, human
Method: In the clinical trial described in Example 9, cerebrospinal fluid (CSF) stabilized with formic acid 0.5% and matching plasma samples collected on K2 EDTA were drawn from 3 patients of Arm A on day 11 of cycle 1 (i.e. 2 patients at 150 mg and 1 patient at 200 mg of Study drug) and 1 patient of Arm B on Week 3 day 1 (i.e. Day 15 after daily doses of Study drug at 90 mg).
Study drug (parent, active moiety) and its active metabolite N^32-desmethyl-Study drug were measured using LC-MS/MS methods. Results were provided in ng per mL of plasma or CSF, and then converted to nmol/L using the molecular weights of the Study drug (511.45 g/mol) and N^32-desmethyl-Study drug (497.42 g/mol).
(§1) Thus, the unbound (or free fraction) of the Study Drug and the N^32-desmethyl-Study drug are calculated.
In CSF, the total protein concentration varies between 0.2% and 0.5% of the total protein concentration of blood (H. Reiber, Clinica Chimica Acta, 2001; Schilde L M et al., PLoS ONE, 2018), therefore the concentration measured in CSF essentially corresponds to the free fraction of the compounds.
For each of the 4 patients, the ratio CSF/plasma of a given compound (Study drug parent or metabolite) was calculated using the CSF concentration of said compound (in nmol/L) and the unbound or free fraction of said compound in plasma (in nmol/L).

[2] = Binding to plasma proteins; format: in vitro ADME; conditions: human
Method: as §1

SF188 cells = assay: Colony formation assay in SF188 cells; format: cell-based; conditions: up to 400 nM, 10 days post-treatment
Method: SF188 cells were transfected with ATRX siRNA (siATRX_1 or siATRX_2) either individually (A) or as a pool (B and C) or control siRNA (siCon) and ATRX deficiency assessed by determining relative ATRX protein levels by western blotting. Control and ATRX-deficient SF188 cells were then treated with compound of formula (I) at a range of concentrations between 0 and 1.5 uM (FIG. 7A) and at 400 nM (FIG. 7B) and drug sensitivities were assessed via an ATP-based cell viability assay or in colony formation assay.
For cell viability assessment, SF188 cells were seeded in 96-well culture plates at 100-500 cells in 100 μl of culture media per well. After overnight incubation, 100 μl of culture media containing compound of formula (I) was added to each well at the desired final concentration. After 72 h, cell viability was assessed by CellTiter-Glo 2.0 according to the manufacturer's instructions. Each condition was tested in triplicate or quadruplicate, and the average viability is presented as a percentage of vehicle-treated cells. For colony formation assessment (FIG. 7C), SF188 cells were seeded on a 6-well plate at 100 cells per well in 1 ml of culture media. […] The number of colonies in each well was counted manually. […] Colony-forming efficiency was determined by normalizing the colony numbers to the vehicle-treated cells.

U87-MG-luc GBM cell line = assay: U87-MG-luc tumors implanted subcutaneously in mice, monotherapy; format: in vivo; conditions: for Tumor volume vs vehicle controls at end of treatment: subcutaneous, 28 days
Method: Male athymic nude mice were injected A) subcutaneously (s.c.) or B) cerebrally (i.e.) with 1×10^5 U87-MG-luc cells in Matrigel. Animals implanted i.e. were imaged to monitor tumor establishment and growth throughout the study using an In Vivo Imaging System (IVIS) once weekly, detecting tumor bioluminescence (BLI) in photons. For animals implanted s.c., tumor growth was monitored twice weekly by caliper measurement and tumor volume calculated using the equation V=(L×W×W)/2, where V is tumor volume, L is tumor length (the longest tumor dimension) and W is tumor width (the longest tumor dimension perpendicular to L). Upon confirmation of tumor establishment, animals were randomly allocated into 3 (A, s.c.) or 2 (B, i.e.) treatment groups (n=8 animals per group) consisting of vehicle (0.5% methycellulose, 1% Tween 80 P.O. and saline I.V.) or Compound of formula (I) [CoF (I)] formulated as a suspension in 0.5% methycellulose and 1% Tween 80. The treatments were administered over a 28 day cycle and compound of formula (I) was administered orally at a dose of either 30 mg/kg (for both A and B) or 60 mg/kg (for A only), once daily (QD)). During routine monitoring, the animals were checked for any effects of tumor growth and treatments on behavior such as mobility, food and water consumption, body weight gain/loss 3 times a week, eye/hair matting and any other abnormalities. Mortality and observed clinical signs were recorded for individual animals in detail.

## Cc1cc(Nc2ncc3c(n2)N(C)CN(c2c(Cl)cccc2Cl)C3=O)ccc1C1CCN(C)CC1 [Compound of formula (I)]
[1]; Arm A, 150 mg, day 11 of cycle 1, listed as Study drug
  CSF to “unbound plasma” ratio: 0.33
[1]; human, CSF / unbound plasma, 90 mg, Arm B, 90 mg daily, Week 3 day 1 (Day 15), read-out: CSF to “unbound plasma” ratio
  Kp at 15 day: 0.42
[1]; human, CSF / unbound plasma, 150 mg, Arm A, 150 mg, day 11 of cycle 1, read-out: CSF to “unbound plasma” ratio
  Kp at 11 day: 0.35
[1]; human, CSF / unbound plasma, 200 mg, Arm A, 200 mg, day 11 of cycle 1, read-out: CSF to “unbound plasma” ratio
  Kp at 11 day: 0.38
[1]; human, CSF, 90 mg, Arm B, 90 mg daily, Week 3 day 1 (Day 15), read-out: CSF concentration
  concentration at 15 day: 21.3 nM
[1]; human, CSF, 90 mg, Arm B, 90 mg daily, Week 3 day 1 (Day 15), read-out: Raw data concentration in CSF
  concentration at 15 day: 10.9 ng/mL
[1]; human, CSF, 200 mg, Arm A, 200 mg, day 11 of cycle 1, read-out: CSF concentration
  concentration at 11 day: 19.8 nM
[1]; human, CSF, 200 mg, Arm A, 200 mg, day 11 of cycle 1, read-out: Raw data concentration in CSF
  concentration at 11 day: 10.1 ng/mL
[1]; human, CSF/unbound plasma, 4 patients, Arms A and B, read-out: CSF/plasma ratio
  Kp: 0.33 to 0.42
[1]; human, plasma (unbound), 90 mg, Arm B, 90 mg daily, Week 3 day 1 (Day 15), read-out: Unbound plasma concentration
  concentration at 15 day: 50.3 nM
[1]; human, plasma (unbound), 200 mg, Arm A, 200 mg, day 11 of cycle 1, read-out: Unbound plasma concentration
  concentration at 11 day: 52.4 nM
[1]; human, plasma, 90 mg, Arm B, 90 mg daily, Week 3 day 1 (Day 15), read-out: Raw data concentration in plasma
  concentration at 15 day: 309 ng/mL
[1]; human, plasma, 200 mg, Arm A, 200 mg, day 11 of cycle 1, read-out: Raw data concentration in plasma
  concentration at 11 day: 322 ng/mL
[2]
  fraction unbound: 0.083
SF188 cells
  Surviving fraction of cells, colony formation assay: significantly reduced the surviving fraction of cells
U87-MG-luc GBM cell line; all dose levels (30 or 60 mg/kg QD, 28 days), s.c. and cerebral models
  Body weight loss / tolerability: No significant body weight loss
U87-MG-luc GBM cell line; 30 mg/kg oral QD, p=0.0009 on day 28
  Tumor volume vs vehicle controls at end of treatment: significantly smaller tumors than vehicle controls
U87-MG-luc GBM cell line; 60 mg/kg oral QD, p<0.0001 on day 28
  Tumor volume vs vehicle controls at end of treatment: significantly smaller tumors than vehicle controls
